Source: PubChem BioAssay (NCI)
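48-hour exposure; five concentrations; linearly interpolated endpoints. At the GI50, growth is halved. Definition used: TGI = concentration required for complete inhibition of growth.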

Tests used:
Assay in all cases: NCI anticancer screen, dose series, 48 h
A549 NSCLC = system: A549 NSCLC
SF-295 CNS = system: SF-295 CNS
SK-MEL-2 melanoma = system: SK-MEL-2 melanoma
SW-620 colon = system: SW-620 colon
LOX IMVI melanoma = system: LOX IMVI melanoma
HL-60(TB) leukemia = system: HL-60(TB) leukemia
PC-3 prostate = system: PC-3 prostate
M14 melanoma = system: M14 melanoma
NCI-H460 lung = system: NCI-H460 lung
MCF7 breast = system: MCF7 breast
HOP-62 NSCLC = system: HOP-62 NSCLC
COLO 205 colon = system: COLO 205 colon
SK-MEL-5 melanoma = system: SK-MEL-5 melanoma
SF-539 CNS = system: SF-539 CNS
NCI/ADR-RES ovarian = system: NCI/ADR-RES ovarian
U251 CNS = system: U251 CNS
SF-268 CNS = system: SF-268 CNS
UACC-62 melanoma = system: UACC-62 melanoma
ACHN renal = system: ACHN renal
DU-145 prostate = system: DU-145 prostate
OVCAR-5 ovarian = system: OVCAR-5 ovarian
CAKI-1 renal = system: CAKI-1 renal
OVCAR-8 ovarian = system: OVCAR-8 ovarian
TK-10 renal = system: TK-10 renal
A498 renal = system: A498 renal
BT-549 breast = system: BT-549 breast
T-47D breast = system: T-47D breast
OVCAR-4 ovarian = system: OVCAR-4 ovarian
HCT-116 colon = system: HCT-116 colon
NCI-H226 lung = system: NCI-H226 lung
HCC-2998 colon = system: HCC-2998 colon
OVCAR-3 ovarian = system: OVCAR-3 ovarian
UO-31 renal = system: UO-31 renal
HT29 colon = system: HT29 colon
SR leukemia = system: SR leukemia
RXF 393 renal = system: RXF 393 renal
K-562 leukemia = system: K-562 leukemia
SN12C renal = system: SN12C renal
MDA-MB-231 breast = system: MDA-MB-231 breast
HS 578T breast = system: HS 578T breast
NCI-H522 lung = system: NCI-H522 lung
SK-OV-3 ovarian = system: SK-OV-3 ovarian
SNB-75 CNS = system: SNB-75 CNS
CCRF-CEM leukemia = system: CCRF-CEM leukemia
UACC-257 melanoma = system: UACC-257 melanoma
EKVX NSCLC = system: EKVX NSCLC
IGROV1 ovarian = system: IGROV1 ovarian
RPMI-8226 leukemia = system: RPMI-8226 leukemia
MALME-3M melanoma = system: MALME-3M melanoma
HCT-15 colon = system: HCT-15 colon
786-0 renal = system: 786-0 renal
NCI-H23 lung = system: NCI-H23 lung
MDA-MB-435 = system: MDA-MB-435
SK-MEL-28 melanoma = system: SK-MEL-28 melanoma
MOLT-4 leukemia = system: MOLT-4 leukemia
KM12 colon = system: KM12 colon

Which results are given for `COc1cc(NC(C)CCCN)c2nccc(C)c2c1OC` (configuration not stated)?
GI50 (A549 NSCLC): 22.8 µM; TGI (A549 NSCLC): 58.5 µM; GI50 (SF-295 CNS): 17 µM; TGI (SF-295 CNS): 32.5 µM; GI50 (SK-MEL-2 melanoma): 18.8 µM; TGI (SK-MEL-2 melanoma): 49.8 µM; GI50 (SW-620 colon): 3.54 µM; TGI (SW-620 colon): 15 µM; GI50 (LOX IMVI melanoma): 14.7 µM; TGI (LOX IMVI melanoma): 28.7 µM; GI50 (HL-60(TB) leukemia): 4.56 µM; TGI (HL-60(TB) leukemia): 16.8 µM; GI50 (PC-3 prostate): 10.5 µM; TGI (PC-3 prostate): 34 µM; GI50 (M14 melanoma): 2.97 µM; TGI (M14 melanoma): 12.7 µM; GI50 (NCI-H460 lung): 14.1 µM; TGI (NCI-H460 lung): 29.5 µM; GI50 (MCF7 breast): 0.372 µM; TGI (MCF7 breast): 1.71 µM; GI50 (HOP-62 NSCLC): 11.1 µM; TGI (HOP-62 NSCLC): 28 µM; GI50 (COLO 205 colon): 3.37 µM; TGI (COLO 205 colon): 11.8 µM; GI50 (SK-MEL-5 melanoma): 3.97 µM; TGI (SK-MEL-5 melanoma): 15.7 µM; GI50 (SF-539 CNS): 10.2 µM; TGI (SF-539 CNS): 22.5 µM; GI50 (NCI/ADR-RES ovarian): 20.5 µM; TGI (NCI/ADR-RES ovarian): 74.6 µM; GI50 (U251 CNS): 14.1 µM; TGI (U251 CNS): 27.4 µM; GI50 (SF-268 CNS): 17.9 µM; TGI (SF-268 CNS): 48.3 µM; GI50 (UACC-62 melanoma): 16.6 µM; TGI (UACC-62 melanoma): 32.1 µM; GI50 (ACHN renal): 20.7 µM; TGI (ACHN renal): 50.1 µM; GI50 (DU-145 prostate): 15.3 µM; TGI (DU-145 prostate): 28.6 µM; GI50 (OVCAR-5 ovarian): 16.1 µM; TGI (OVCAR-5 ovarian): 42.1 µM; GI50 (CAKI-1 renal): 19 µM; TGI (CAKI-1 renal): 40.8 µM; GI50 (OVCAR-8 ovarian): 14.5 µM; TGI (OVCAR-8 ovarian): 42.3 µM; GI50 (TK-10 renal): 19.8 µM; TGI (TK-10 renal): 45.8 µM; GI50 (A498 renal): 14.4 µM; TGI (A498 renal): 30 µM; GI50 (BT-549 breast): 16 µM; TGI (BT-549 breast): 30.2 µM; GI50 (T-47D breast): 4.04 µM; TGI (T-47D breast): 24.1 µM; GI50 (OVCAR-4 ovarian): 2.7 µM; TGI (OVCAR-4 ovarian): 10.2 µM; GI50 (HCT-116 colon): 5 µM; TGI (HCT-116 colon): 18.7 µM; GI50 (NCI-H226 lung): 18.8 µM; TGI (NCI-H226 lung): 43 µM; GI50 (HCC-2998 colon): 4.85 µM; TGI (HCC-2998 colon): 17.8 µM; GI50 (OVCAR-3 ovarian): 3.17 µM; TGI (OVCAR-3 ovarian): 10.1 µM; GI50 (UO-31 renal): 17.6 µM; TGI (UO-31 renal): 34.4 µM; GI50 (HT29 colon): 4.72 µM; TGI (HT29 colon): 20.9 µM; GI50 (SR leukemia): 20.8 µM; TGI (SR leukemia): 60.7 µM; GI50 (RXF 393 renal): 17.1 µM; TGI (RXF 393 renal): 40.3 µM; GI50 (K-562 leukemia): 19.2 µM; TGI (K-562 leukemia): 53.9 µM; GI50 (SN12C renal): 11.4 µM; TGI (SN12C renal): 25.8 µM; GI50 (MDA-MB-231 breast): 8.18 µM; TGI (MDA-MB-231 breast): 25.3 µM; GI50 (HS 578T breast): 8.5 µM; TGI (HS 578T breast): 35.4 µM; GI50 (NCI-H522 lung): 5.28 µM; TGI (NCI-H522 lung): 19.6 µM; GI50 (SK-OV-3 ovarian): 18.6 µM; TGI (SK-OV-3 ovarian): 57.1 µM; GI50 (SNB-75 CNS): 14.1 µM; TGI (SNB-75 CNS): 29.4 µM; GI50 (CCRF-CEM leukemia): 15.4 µM; TGI (CCRF-CEM leukemia): 48 µM; GI50 (UACC-257 melanoma): 13.7 µM; TGI (UACC-257 melanoma): 29.4 µM; GI50 (EKVX NSCLC): 18 µM; TGI (EKVX NSCLC): 33.8 µM; GI50 (IGROV1 ovarian): 4.01 µM; TGI (IGROV1 ovarian): 22.7 µM; GI50 (RPMI-8226 leukemia): 5.67 µM; TGI (RPMI-8226 leukemia): 23.2 µM; GI50 (MALME-3M melanoma): 2.84 µM; TGI (MALME-3M melanoma): 9.84 µM; GI50 (HCT-15 colon): 11.5 µM; TGI (HCT-15 colon): 24.5 µM; GI50 (786-0 renal): 20.3 µM; TGI (786-0 renal): 55.7 µM; GI50 (NCI-H23 lung): 4.21 µM; TGI (NCI-H23 lung): 22 µM; GI50 (MDA-MB-435): 17.1 µM; TGI (MDA-MB-435): 32.7 µM; GI50 (SK-MEL-28 melanoma): 14.6 µM; TGI (SK-MEL-28 melanoma): 29.6 µM; GI50 (MOLT-4 leukemia): 15.3 µM; TGI (MOLT-4 leukemia): 42.1 µM; GI50 (KM12 colon): 16.7 µM; TGI (KM12 colon): 35.1 µM
